Patent US12559492B2, “BRAF degraders” (C4 Therapeutics, Inc., priority 2020, dated 2026)
Structures can show the parent of a compound that is named as a salt.

Target: BRAF^V600E protein (Homo sapiens, UniProt P15056, V600E)
Test: HiBiT cellular BRAF V600E degradation assay
Assay type: cell-based
Conditions: 24 h incubation; for DC50: A375.10 cells (HiBiT tag knocked in at N-terminal of BRAF V600E), concentration at which 50% of total cellular BRAF V600E is degraded; for Emax: A375.10 cells, Emax = amount of residual protein remaining in the cell after compound treatment, read-out: HiBit 24 h Emax

Sequence of BRAF^V600E protein (P15056 whole entry V600E): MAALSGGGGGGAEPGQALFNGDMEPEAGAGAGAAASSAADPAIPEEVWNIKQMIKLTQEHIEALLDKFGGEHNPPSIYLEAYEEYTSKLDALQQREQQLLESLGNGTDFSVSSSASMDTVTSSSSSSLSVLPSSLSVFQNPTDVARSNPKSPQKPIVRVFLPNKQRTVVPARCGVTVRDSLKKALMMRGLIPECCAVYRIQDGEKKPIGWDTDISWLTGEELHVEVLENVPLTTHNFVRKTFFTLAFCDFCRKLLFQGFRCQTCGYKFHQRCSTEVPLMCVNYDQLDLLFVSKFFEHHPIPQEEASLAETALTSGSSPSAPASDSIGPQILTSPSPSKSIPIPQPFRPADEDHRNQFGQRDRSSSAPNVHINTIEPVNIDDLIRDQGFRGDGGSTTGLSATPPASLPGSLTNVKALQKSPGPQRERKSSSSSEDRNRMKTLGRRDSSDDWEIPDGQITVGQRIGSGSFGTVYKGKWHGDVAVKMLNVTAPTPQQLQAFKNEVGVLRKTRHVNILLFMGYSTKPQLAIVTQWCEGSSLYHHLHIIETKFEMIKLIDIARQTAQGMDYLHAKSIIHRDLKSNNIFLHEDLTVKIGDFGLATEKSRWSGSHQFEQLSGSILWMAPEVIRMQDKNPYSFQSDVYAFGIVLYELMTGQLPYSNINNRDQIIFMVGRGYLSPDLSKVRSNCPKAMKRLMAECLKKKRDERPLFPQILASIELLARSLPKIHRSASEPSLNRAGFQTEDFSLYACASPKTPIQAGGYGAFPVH

DC50	Emax	SMILES
62.2 nM	21%	CN(C1CC1)S(=O)(=O)Nc1ccc(F)c(C(=O)c2c[nH]c3ncc(-c4ccc(N5CCN(C(=O)CC6(O)CCN(c7ccc(NC8CCC(=O)NC8=O)cc7F)CC6)CC5)nc4)cc23)c1F (stereo not drawn) [Example 217, 3-[3-[[cyclopropyl(methyl)sulfamoyl]amino]-2,6-difluoro-benzoyl]-5-[6-[4-[2-[1-[4-[(2,6-dioxo-3-piperidyl)amino]-2-fluoro-phenyl]-4-hydroxy-4-piperidyl]acetyl]piperazin-1-yl]-3-pyridyl]-1H-pyrrolo[2,3-b]pyridine]
5 nM	8%	CCN(C)S(=O)(=O)Nc1ccc(F)c(C(=O)c2c[nH]c3ncc(-c4cnc(N5CCN(C(=O)CN6CCC(c7ccc(N8CCC(=O)NC8=O)cc7)CC6)CC5)nc4)cc23)c1F [Example A91, 5-[2-[4-[2-[4-[4-(2,4-Dioxo-1,3-diazinan-1-yl)phenyl]piperidin-1-yl]acetyl]piperazin-1-yl]pyrimidin-5-yl]-3-[3-[[ethyl(methyl)sulfamoyl]amino]-2,6-difluorobenzoyl]-1H-pyrrolo[2,3-b]pyridine]
23.6 nM	14.2%	CCN(C)S(=O)(=O)Nc1ccc(F)c(C(=O)c2c[nH]c3ncc(-c4cnc(N5CCN(C(=O)CC6CCN(c7c(F)cc(NC8CCC(=O)NC8=O)cc7F)CC6)CC5)nc4)cc23)c1F (stereo not drawn) [Example 45, 5-[2-[4-[2-[1-[4-[(2,6-dioxo-3-piperidyl)amino]-2,6-difluoro-phenyl]-4-piperidyl]acetyl]piperazin-1-yl]pyrimidin-5-yl]-3-[3-[[ethyl(methyl)sulfamoyl]amino]-2,6-difluoro-benzoyl]-1H-pyrrolo[2,3-b]pyridine]
18.2 nM	12%	CCN(C)S(=O)(=O)Nc1ccc(F)c(C(=O)c2c[nH]c3ncc(-c4cnc(N5CC6(CC(C(=O)N7CCC(c8ccc(NC9CCC(=O)NC9=O)cc8)CC7)C6)C5)nc4)cc23)c1F (stereo not drawn) [Example 132, 5-[2-[6-[4-[4-[(2,6-dioxo-3-piperidyl)amino]phenyl]piperidine-1-carbonyl]-2-azaspiro[3.3]heptan-2-yl]pyrimidin-5-yl]-3-[3-[[ethyl(methyl)sulfamoyl]amino]-2,6-difluoro-benzoyl]-1H-pyrrolo[2,3-b]pyridine]
4.67 nM	2.37%	CC(C)S(=O)(=O)Nc1ccc(F)c(C(=O)c2c[nH]c3ncc(-c4cnc(N5CCN(C(=O)CN6CCC(c7ccc(C8CCC(=O)NC8=O)cc7)CC6)CC5)nc4)cc23)c1F (stereo not drawn) [Example 8, N-[3-[5-[2-[4-[2-[4-[4-(2,6-dioxo-3-piperidyl)phenyl]-1-piperidyl]acetyl]piperazin-1-yl]pyrimidin-5-yl]-1H-pyrrolo[2,3-b]pyridine-3-carbonyl]-2,4-difluoro-phenyl]propane-2-sulfonamide]
1.14 nM	6.81%	CCN(C)S(=O)(=O)Nc1ccc(F)c(C(=O)c2c[nH]c3ncc(-c4cnc(N5CC6(C5)CC(O)(C5CCN(c7ccc(NC8CCC(=O)NC8=O)cc7F)CC5)C6)nc4)cc23)c1F (stereo not drawn) [Example 196, 5-[2-[6-[1-[4-[(2,6-dioxo-3-piperidyl)amino]-2-fluoro-phenyl]-4-piperidyl]-6-hydroxy-2-azaspiro[3.3]heptan-2-yl]pyrimidin-5-yl]-3-[3-[[ethyl(methyl)sulfamoyl]amino]-2,6-difluoro-benzoyl]-1H-pyrrolo[2,3-b]pyridine]
15.2 nM	8.77%	CCN(C)S(=O)(=O)Nc1ccc(F)c(C(=O)c2c[nH]c3ncc(-c4ccc(N5CCN(C(=O)NC6CCN(c7ccc(NC8CCC(=O)NC8=O)cc7F)CC6)CC5)nc4)cc23)c1F (stereo not drawn) [Example 140, N-[1-[4-[(2,6-dioxo-3-piperidyl)amino]-2-fluoro-phenyl]-4-piperidyl]-4-[5-[3-[3-[[ethyl(methyl)sulfamoyl]amino]-2,6-difluoro-benzoyl]-1H-pyrrolo[2,3-b]pyridin-5-yl]-2-pyridyl]piperazine-1-carboxamide]
2.41 nM	8.84%	CCN(C)S(=O)(=O)Nc1ccc(F)c(C(=O)c2c[nH]c3ncc(-c4cnc(N5CCN(C(=O)CC6(O)CCN(c7ccc(NC8CCC(=O)NC8=O)cc7F)CC6)CC5)nc4)cc23)c1F (stereo not drawn) [Example 59, 5-[2-[4-[2-[1-[4-[(2,6-dioxo-3-piperidyl)amino]-2-fluoro-phenyl]-4-hydroxy-4-piperidyl]acetyl]piperazin-1-yl]pyrimidin-5-yl]-3-[3-[[ethyl(methyl)sulfamoyl]amino]-2,6-difluoro-benzoyl]-1H-pyrrolo[2,3-b]pyridine]
4.19 nM	6.67%	CCN(C)S(=O)(=O)Nc1ccc(Cl)c(C(=O)c2c[nH]c3ncc(-c4ccc(N5CCN(C(=O)CC6(O)CCN(c7ccc(NC8CCC(=O)NC8=O)cc7F)CC6)CC5)nc4)cc23)c1F (stereo not drawn) [Example 201, 3-[6-chloro-3-[[ethyl(methyl)sulfamoyl]amino]-2-fluoro-benzoyl]-5-[6-[4-[2-[1-[4-[(2,6-dioxo-3-piperidyl)amino]-2-fluoro-phenyl]-4-hydroxy-4-piperidyl]acetyl]piperazin-1-yl]-3-pyridyl]-1H-pyrrolo[2,3-b]pyridine]
4.46 nM	16.2%	O=C1CCC(Nc2ccc(C3CCN(CC(=O)N4CCN(c5ccc(-c6cnc7[nH]cc(C(=O)c8c(F)ccc(NS(=O)(=O)N9CC[C@@H](F)C9)c8F)c7c6)cc5)CC4)CC3)cc2)C(=O)N1 (stereo partly drawn) [Example A75, (3R)—N-[3-[5-[4-[4-[2-[4-[4-[(2,6-Dioxopiperidin-3-yl)amino]phenyl]piperidin-1-yl]acetyl]piperazin-1-yl]phenyl]-1H-pyrrolo[2,3-b]pyridine-3-carbonyl]-2,4-difluorophenyl]-3-fluoropyrrolidine-1-sulfonamide]
4.72 nM	6.94%	CCN(C)S(=O)(=O)Nc1ccc(F)c(C(=O)c2c[nH]c3ncc(-c4cnc(N5CCN(C(=O)CN6CC[C@@H](c7ccc(NC8CCC(=O)NC8=O)cc7)C(F)(F)C6)CC5)nc4)cc23)c1F (stereo partly drawn) [Example 54, 5-[2-[4-[2-[(4S)-4-[4-[(2,6-dioxo-3-piperidyl)amino]phenyl]-3,3-difluoro-1-piperidyl]acetyl]piperazin-1-yl]pyrimidin-5-yl]-3-[3-[[ethyl(methyl)sulfamoyl]amino]-2,6-difluoro-benzoyl]-1H-pyrrolo[2,3-b]pyridine]
6.33 nM	10.9%	CCN(C)S(=O)(=O)Nc1ccc(F)c(C(=O)c2c[nH]c3ncc(-c4ccc(N5CCN(C(=O)CC6(O)CCN(c7ccc(NC8CCC(=O)NC8=O)cc7F)CC6)CC5)cc4)cc23)c1Cl (stereo not drawn) [Example 155, 3-[2-chloro-3-[[ethyl(methyl)sulfamoyl]amino]-6-fluoro-benzoyl]-5-[4-[4-[2-[1-[4-[(2,6-dioxo-3-piperidyl)amino]-2-fluoro-phenyl]-4-hydroxy-4-piperidyl]acetyl]piperazin-1-yl]phenyl]-1H-pyrrolo[2,3-b]pyridine]
58.4 nM	14.9%	CCN(C)S(=O)(=O)Nc1ccc(F)c(C(=O)c2c[nH]c3ncc(-c4ccc(N5CCN(C(=O)CC6(O)CCN(c7ccc(NC8CCC(=O)NC8=O)cc7F)CC6)CC5)cc4C)cc23)c1F (stereo not drawn) [Example 189, 5-[4-[4-[2-[1-[4-[(2,6-dioxo-3-piperidyl)amino]-2-fluoro-phenyl]-4-hydroxy-4-piperidyl]acetyl]piperazin-1-yl]-2-methyl-phenyl]-3-[3-[[ethyl(methyl)sulfamoyl]amino]-2,6-difluoro-benzoyl]-1H-pyrrolo[2,3-b]pyridine]
7.69 nM	7.6%	CCN(C)S(=O)(=O)Nc1ccc(F)c(C(=O)c2c[nH]c3ncc(-c4ccc(N5CCN(C(=O)CC6(O)CCN(c7ccc(NC8CCC(=O)NC8=O)cc7F)CC6)CC5)cc4F)cc23)c1F (stereo not drawn) [Example 210, 5-[4-[4-[2-[1-[4-[(2,6-dioxo-3-piperidyl)amino]-2-fluoro-phenyl]-4-hydroxy-4-piperidyl]acetyl]piperazin-1-yl]-2-fluoro-phenyl]-3-[3-[[ethyl(methyl)sulfamoyl]amino]-2,6-difluoro-benzoyl]-1H-pyrrolo[2,3-b]pyridine]
6.27 nM	10.8%	CCN(C)S(=O)(=O)Nc1cccc(C(=O)c2c[nH]c3ncc(-c4cnc(N5CCN(C(=O)CC6(O)CCN(c7ccc(N8CCC(=O)NC8=O)cc7F)CC6)CC5)nc4)cc23)c1F [Example 165, 5-[2-[4-[2-[1-[4-(2,4-dioxohexahydropyrimidin-1-yl)-2-fluoro-phenyl]-4-hydroxy-4-piperidyl]acetyl]piperazin-1-yl]pyrimidin-5-yl]-3-[3-[[ethyl(methyl)sulfamoyl]amino]-2-fluoro-benzoyl]-1H-pyrrolo[2,3-b]pyridine]
4.47 nM	7.75%	CCN(C)S(=O)(=O)Nc1cccc(C(=O)c2c[nH]c3ncc(-c4ccc(N5CCN(C(=O)CN6CCC(c7ccc(NC8CCC(=O)NC8=O)cc7)C(F)(F)C6)CC5)nc4)cc23)c1F (stereo not drawn) [Example 110, 5-[6-[4-[2-[4-[4-[(2,6-dioxo-3-piperidyl)amino]phenyl]-3,3-difluoro-1-piperidyl]acetyl]piperazin-1-yl]-3-pyridyl]-3-[3-[[ethyl(methyl)sulfamoyl]amino]-2-fluoro-benzoyl]-1H-pyrrolo[2,3-b]pyridine]
2.71 nM	9.65%	CCN(C)S(=O)(=O)Nc1ccc(F)c(C(=O)c2c[nH]c3ncc(-c4ccc(N5CCN(C(=O)CC6(O)CCN(c7ccc(N[C@@H]8CCC(=O)NC8=O)cc7F)CC6)CC5)cc4)cc23)c1F [Example 178, 5-[4-[4-[2-[1-[4-[[(3R)-2,6-dioxo-3-piperidyl]amino]-2-fluoro-phenyl]-4-hydroxy-4-piperidyl]acetyl]piperazin-1-yl]phenyl]-3-[3-[[ethyl(methyl)sulfamoyl]amino]-2,6-difluoro-benzoyl]-1H-pyrrolo[2,3-b]pyridine]
84 nM	12%	CCN(C)S(=O)(=O)Nc1ccc(F)c(C(=O)c2c[nH]c3ncc(-c4ccc(N5CCC(NCC(=O)N6CCC(c7ccc(OC8CCC(=O)NC8=O)cn7)CC6)CC5)cc4)cc23)c1F (stereo not drawn) [Example A97, 5-[4-[4-[[2-[4-[5-(2,6-Dioxopiperidin-3-yl)oxypyridin-2-yl]piperidin-1-yl]-2-oxoethyl]amino]piperidin-1-yl]phenyl]-3-[3-[[ethyl(methyl)sulfamoyl]amino]-2,6-difluorobenzoyl]-1H-pyrrolo[2,3-b]pyridine;hydrochloride]
